Measurements from patent US20080200403A1, “9A-Carbamoyl and Thiocarbamoyl Azalides with Anti-Inflammatory Activity” (GLAXOSMITHKLINE, priority 2005, published 2008).
Read-outs that look alike come from different tables or passages of the source.

Key:
Type in all cases: cell-based
TNF-α = experiment: Inhibition of TNF-α production by stimulated human peripheral blood leukocytes in vitro; details: PBL; for inhibition at 10 µM / inhibition at 50 µM: Homo sapiens, Leukocyte, read-out: Percentage of inhibition of TNF-α production
Protocol: (§1) Test substances used in in vitro experiments were dissolved in dimethyl sulfoxide (DMSO) (Kemika, Croatia) at concentrations of 50 mM and 10 mM, and were further diluted to final concentrations of 50 μM and 10 μM in 1 mL Dulbecco's modified Eagle medium (DMEM) supplemented with 1% heat inactivated fetal bovine serum (FBS), 1% L-glutamine, 50 U/ml penicillin, 50 μg/ml streptomycin and 2.5 μg/mL Fungizone (amphotericin B). Media and all media supplements were purchased from Gibco, Australia, except the FBS was purchased from Sigma, USA.
(§2) Peripheral blood leukocytes (PBL) were obtained from venous blood of healthy volunteers by sedimentation on 2% dextran T-500 (Amersham Biosciences, USA) and subsequent centrifugations of leukocyte rich plasma.
(§3) Peripheral blood leukocytes (PBL), isolated as described above, were seeded in a 48-well plate at a concentration of 3 to 5×10^6 cell per well in culture medium consisting of RPMI 1640 medium (Institute of Immunology, Croatia) supplemented with 10% heat-inactivated fetal calf serum (FCS, Biowhittaker, USA), 100 U/ml penicillin (Gibco, Australia), 100 μg/ml streptomycin (Gibco, Australia) and 2 mM L-glutamine (Gibco, Australia), and preincubated with the test compounds for 2 h at 37° C., in an atmosphere of 5% CO2, and 90% humidity. Then, stimuli (Sigma, USA) were added to a final concentration of 2 μg/mL lipopolysaccharide (LPS), 1 μg/mL phorbol 12-myristate 13-acetate (PMA) or 120 μg/mL zymosan. Samples were incubated overnight under conditions described above. At the end of incubation, the supernatants were transferred to eppendorf tubes and centrifuged for 10 min at 1500×g. Concentrations of human TNF-α, IL-1β, IL-6 and IL-8 were determined in cell supernatants by sandwich ELISA, using capture and detection antibodies (R&D Systems, Minneapolis, Minn.) according to the manufacturer's recommendations.
(§4) Inhibition (as percentage) was calculated using the following formula: % inhibition=(1−concentration of cytokines in sample/concentration of cytokines in positive control)×100. The positive control refers to stimulated samples, not treated with substances.

IL-1α = experiment: Inhibition of IL-1 production by stimulated human peripheral blood leukocytes in vitro; details: PBL; for inhibition at 10 µM / inhibition at 50 µM: Homo sapiens, Leukocyte, read-out: Percentage of inhibition of IL-1α production
IL-6 = experiment: Inhibition of IL-6 production by stimulated human peripheral blood leukocytes in vitro; details: PBL; for inhibition at 10 µM / inhibition at 50 µM: Homo sapiens, Leukocyte, read-out: Percentage of inhibition of IL-6 production
Protocol: as §1, §2, §3, §4

IL-8 = experiment: Inhibition of IL-8 production by stimulated human peripheral blood leukocytes in vitro; details: PBL; for inhibition at 10 µM / inhibition at 50 µM: Homo sapiens, Leukocyte, read-out: Percentage of inhibition of IL-8 production
Protocol: as §1, §2, §3, §4

[1] = tested on: human peripheral blood mononuclear cells (PBMC); experiment: Human T-cell proliferation in vitro (3H-thymidine incorporation); details: for inhibition at 10 µM / inhibition at 50 µM: Homo sapiens, PBMC, read-out: Percentage of inhibition of proliferation of stimulated PBMC
Protocol: Influence of substances at two different concentrations (50 μM and 10 μM) on cell proliferation of human peripheral blood mononuclear cells (PBMC) was assessed.
Heparinized peripheral blood was obtained from healthy donors, and PBMC were isolated by Histopaque 1077 (Sigma, USA) density centrifugation at 400×g for 30 minutes. 5×10^4 cells/well were cultured for 3 days in the RPMI medium as described above, in the presence (positive control) or absence (negative control) of stimulators [PHA (2.5 μg/mL) (Sigma, USA), or both PMA (10 ng/mL) (Sigma, USA) and ionomycin (500 ng/mL) (Calbiochem, USA)], and in the presence of the test compounds, at 37° C. in an atmosphere of 5% CO2 and 90% humidity. The cells were pulsed with 1 μCi of ^3H-thymidine (Amersham, USA) per well during the last 18 h of the culture, and were harvested on the 96-well filter (Packard Bioscience, USA) using a multiple cell harvester (Packard, USA). The incorporation of ^3H-thymidine in activated cells were measured using TopCount NXT (Packard, USA).
Inhibition (as percentage) was calculated using the following formula: % inhibition=(1−(^3H)thymidine incorporation expressed in counts per minute (cpm) in sample/(^3H)thymidine incorporation expressed in cpm in positive control)×100
where positive control refers to stimulated samples, not treated with substances.

human granulocytes = experiment: Oxidative burst inhibition assay on granulocytes (luminol); details: for % inhibition of Oxidative burst PMA: PMA stimulated granulocytes; for % inhibition of Oxidative burst Zymosan: Zymosan stimulated granulocytes
Protocol: Granulocytes were obtained from heparinized whole blood using density gradient centrifugation. Erythrocytes were sedimented on 3% dextran T-500 (Amersham Pharmacia Biotech AB, Uppsala, Sweden). Leukocytes were centrifuged on Ficoll (Amersham Pharmacia Biotech AB, Uppsala, Sweden) for 35 min at 600 g at 20° C. The pellet of granulocytes was cleared from remaining erythrocytes by a brief hypotonic lysis.
The effect of compounds on oxidative burst was investigated in vitro with oxidative burst assay in human granulocytes, isolated as described above. Assay was done in 96 well plate. Blood was obtained from healthy volunteers (Transfusion Center, Croatia) and human granulocytes were isolated by dextran sedimentation and ficoll extraction method, as described above. In each well 50000 isolated granulocytes were suspended in 100 μL of DMEM. Final concentrations of the tested compounds were 50 and 12.5 μM. Than, 50 μL of luminol (c=0.25 mg/mL) was added. Luminol as a detector of oxidative burst react with superoxide and light is produced as one of the reaction products. Subsequently, 50 μL of stimuli, phorbol-12-myristate acetate (PMA) (c=33 ng/mL) or Zymosan (c=120 μg/mL), were added.

[2] = zymosan stimulated, compound 10 μM
[3] = zymosan stimulated, compound 50 μM
[4] = PMA + ionomycin stimulated, compound 10 μM
[5] = PMA + ionomycin stimulated, compound 50 μM

## CCC1OC(=O)C(C)C(OC2CC(C)(OC)C(O)C(C)O2)C(C)C(OC2OC(C)CC(N(C)C)C2O)C(C)(O)CC(C)CN(C(=S)Nc2ccc(Cl)cc2)C(C)C(O)C1(C)O (stereo not drawn) [Compound 2]
TNF-α; LPS stimulated, compound 10 μM
  Percentage of inhibition of TNF-α production: 37%
TNF-α; LPS stimulated, compound 50 μM
  Percentage of inhibition of TNF-α production: 100%
TNF-α; PMA stimulated, compound 10 μM
  Percentage of inhibition of TNF-α production: 60%
TNF-α; PMA stimulated, compound 50 μM
  Percentage of inhibition of TNF-α production: 99%
TNF-α; [2]
  Percentage of inhibition of TNF-α production: 78%
TNF-α; [3]
  Percentage of inhibition of TNF-α production: 98%
IL-1α; LPS stimulated, compound 10 μM
  Percentage of inhibition of IL-1α production: 77%
IL-1α; LPS stimulated, compound 50 μM
  Percentage of inhibition of IL-1α production: 98%
IL-1α; PMA stimulated, compound 10 μM
  Percentage of inhibition of IL-1α production: 18%
IL-1α; PMA stimulated, compound 50 μM
  Percentage of inhibition of IL-1α production: 97%
IL-1α; [2]
  Percentage of inhibition of IL-1α production: 92%
IL-1α; [3]
  Percentage of inhibition of IL-1α production: 98%
IL-6; LPS stimulated, compound 10 μM
  Percentage of inhibition of IL-6 production: 75%
IL-6; LPS stimulated, compound 50 μM
  Percentage of inhibition of IL-6 production: 100%
IL-6; PMA stimulated, compound 10 μM
  Percentage of inhibition of IL-6 production: 49%
IL-6; PMA stimulated, compound 50 μM
  Percentage of inhibition of IL-6 production: 100%
IL-6; [2]
  Percentage of inhibition of IL-6 production: 90%
IL-6; [3]
  Percentage of inhibition of IL-6 production: 100%
IL-8; LPS stimulated, compound 10 μM
  Percentage of inhibition of IL-8 production: 79%
IL-8; LPS stimulated, compound 50 μM
  Percentage of inhibition of IL-8 production: 88%
IL-8; PMA stimulated, compound 10 μM
  Percentage of inhibition of IL-8 production: 27%
IL-8; PMA stimulated, compound 50 μM
  Percentage of inhibition of IL-8 production: 58%
IL-8; [2]
  Percentage of inhibition of IL-8 production: 61%
IL-8; [3]
  Percentage of inhibition of IL-8 production: 51%
[1]; PHA stimulated, compound 10 μM
  Percentage of inhibition of proliferation of stimulated PBMC: 6%
[1]; PHA stimulated, compound 50 μM
  Percentage of inhibition of proliferation of stimulated PBMC: 97%
[1]; [4]
  Percentage of inhibition of proliferation of stimulated PBMC: 35%
[1]; [5]
  Percentage of inhibition of proliferation of stimulated PBMC: 99%
Human granulocytes; compound 12.5 μM
  % inhibition of Oxidative burst PMA: 19%
  % inhibition of Oxidative burst Zymosan: 24%
Human granulocytes; compound 50 μM
  % inhibition of Oxidative burst PMA: 82%
  % inhibition of Oxidative burst Zymosan: 98%

## CC[C@H]1OC(=O)[C@H](C)[C@@H](O[C@H]2C[C@@](C)(OC)[C@@H](O)[C@H](C)O2)[C@H](C)[C@@H](O[C@@H]2O[C@H](C)C[C@H](N(C)C)[C@H]2O)[C@](C)(O)C[C@@H](C)CN(C(=S)Nc2cccc(Br)c2)[C@H](C)[C@@H](O)[C@]1(C)O [Compound 6]
TNF-α; LPS stimulated, compound 10 μM
  inhibition at 10 µM: 74%
TNF-α; LPS stimulated, compound 50 μM
  inhibition at 50 µM: 100%
TNF-α; PMA stimulated, compound 10 μM
  inhibition at 10 µM: 73%
TNF-α; PMA stimulated, compound 50 μM
  inhibition at 50 µM: 100%
TNF-α; [2]
  inhibition at 10 µM: 36%
TNF-α; [3]
  inhibition at 50 µM: 98%
IL-1α; LPS stimulated, compound 10 μM
  inhibition at 10 µM: 64%
IL-1α; LPS stimulated, compound 50 μM
  inhibition at 50 µM: 98%
IL-1α; PMA stimulated, compound 10 μM
  inhibition at 10 µM: 79%
IL-1α; PMA stimulated, compound 50 μM
  inhibition at 50 µM: 100%
IL-1α; [2]
  inhibition at 10 µM: 67%
IL-1α; [3]
  inhibition at 50 µM: 89%
IL-6; LPS stimulated, compound 10 μM
  inhibition at 10 µM: 59%
IL-6; LPS stimulated, compound 50 μM
  inhibition at 50 µM: 100%
IL-6; [2]
  inhibition at 10 µM: 6%
IL-6; [3]
  inhibition at 50 µM: 100%
IL-8; LPS stimulated, compound 10 μM
  inhibition at 10 µM: 43%
IL-8; LPS stimulated, compound 50 μM
  inhibition at 50 µM: 100%
IL-8; PMA stimulated, compound 10 μM
  inhibition at 10 µM: 23%
IL-8; PMA stimulated, compound 50 μM
  inhibition at 50 µM: 100%
IL-8; [2]
  inhibition at 10 µM: 41%
IL-8; [3]
  inhibition at 50 µM: 71%
[1]; PHA stimulated, compound 10 μM
  inhibition at 10 µM: 0%
[1]; PHA stimulated, compound 50 μM
  inhibition at 50 µM: 100%
[1]; [4]
  inhibition at 10 µM: 0%
[1]; [5]
  inhibition at 50 µM: 100%

## CC[C@H]1OC(=O)[C@H](C)[C@@H](O)[C@H](C)[C@@H](O[C@@H]2O[C@H](C)C[C@H](N(C)C)[C@H]2O)[C@](C)(O)C[C@@H](C)CN(C(=O)NCc2ccccc2)[C@H](C)[C@@H](O)[C@]1(C)O [Compound 8]
TNF-α; LPS stimulated, compound 10 μM
  Percentage of inhibition of TNF-α production: 58%
TNF-α; LPS stimulated, compound 50 μM
  Percentage of inhibition of TNF-α production: 30%
TNF-α; PMA stimulated, compound 10 μM
  Percentage of inhibition of TNF-α production: 56%
TNF-α; PMA stimulated, compound 50 μM
  Percentage of inhibition of TNF-α production: 54%
TNF-α; [2]
  Percentage of inhibition of TNF-α production: 16%
TNF-α; [3]
  Percentage of inhibition of TNF-α production: 0%
IL-1α; LPS stimulated, compound 10 μM
  Percentage of inhibition of IL-1α production: 42%
IL-1α; LPS stimulated, compound 50 μM
  Percentage of inhibition of IL-1α production: 40%
IL-1α; PMA stimulated, compound 10 μM
  Percentage of inhibition of IL-1α production: 26%
IL-1α; PMA stimulated, compound 50 μM
  Percentage of inhibition of IL-1α production: 0%
IL-1α; [2]
  Percentage of inhibition of IL-1α production: 16%
IL-1α; [3]
  Percentage of inhibition of IL-1α production: 17%
IL-6; LPS stimulated, compound 10 μM
  Percentage of inhibition of IL-6 production: 60%
IL-6; LPS stimulated, compound 50 μM
  Percentage of inhibition of IL-6 production: 82%
IL-6; [2]
  Percentage of inhibition of IL-6 production: 20%
IL-6; [3]
  Percentage of inhibition of IL-6 production: 18%
IL-8; LPS stimulated, compound 10 μM
  Percentage of inhibition of IL-8 production: 48%
IL-8; LPS stimulated, compound 50 μM
  Percentage of inhibition of IL-8 production: 0%
IL-8; PMA stimulated, compound 10 μM
  Percentage of inhibition of IL-8 production: 37%
IL-8; PMA stimulated, compound 50 μM
  Percentage of inhibition of IL-8 production: 0%
IL-8; [2]
  Percentage of inhibition of IL-8 production: 0%
IL-8; [3]
  Percentage of inhibition of IL-8 production: 0%
[1]; PHA stimulated, compound 10 μM
  Percentage of inhibition of proliferation of stimulated PBMC: 0%
[1]; PHA stimulated, compound 50 μM
  Percentage of inhibition of proliferation of stimulated PBMC: 0%
[1]; [4]
  Percentage of inhibition of proliferation of stimulated PBMC: 0%
[1]; [5]
  Percentage of inhibition of proliferation of stimulated PBMC: 0%
